Several values for one entry are separate records, joined by “and”; a condition that tells them apart may be missing. Equal values may be shown once.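 Five concentrations, 48 hours, 96-well plates. Here, GI50 denotes the concentration required for 50% inhibition of growth. The concentration for full growth arrest is given as TGI.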
What was measured:
Experiment in all cases: NCI anticancer screen, dose series, 48 h
HCC-2998 colon = tested on: HCC-2998 colon
HCT-116 colon = tested on: HCT-116 colon
HCT-15 colon = tested on: HCT-15 colon
HS 578T breast = tested on: HS 578T breast
MDA-MB-435 = tested on: MDA-MB-435
MDA-N = tested on: MDA-N
PC-3 prostate = tested on: PC-3 prostate
RXF 393 renal = tested on: RXF 393 renal
SF-295 CNS = tested on: SF-295 CNS
SN12C renal = tested on: SN12C renal

Structure (SMILES)	TGI (HCC-2998 colon)	TGI (HCT-116 colon)	TGI (HCT-15 colon)	TGI (HS 578T breast) [µM]	TGI (MDA-MB-435) [µM]	TGI (MDA-N) [µM]	TGI (PC-3 prostate) [µM]	TGI (RXF 393 renal)	TGI (SF-295 CNS)	TGI (SN12C renal)	GI50 (HCC-2998 colon) [µM]	GI50 (HCT-116 colon) [µM]	GI50 (SF-295 CNS)	GI50 (SN12C renal) [µM]
CCNC(=S)N/N=C/c1cc([N+](=O)[O-])ccc1O	> 100 µM	40.8 µM	> 100 µM	> 100	> 100	> 100	> 100	> 100 µM	> 100 µM	> 100 µM	–	–	–	–
CC(=O)O[C@H]1C(=O)[C@]2(C)[C@@H](OC(=O)OCCC(O)CO)C[C@H]3OC[C@@]3(OC(C)=O)[C@H]2[C@H](OC(=O)c2ccccc2)[C@]2(O)C[C@H](OC(=O)[C@H](O)[C@@H](NC(=O)c3ccccc3)c3ccccc3)C(C)=C1C2(C)C (some centres undefined)	0.32 µM	5.65 µM	> 100 µM	0.479	< 0.01	< 0.01	> 36.2	17.9 µM	1.12 µM	19.8 µM	–	–	–	–
CN1CCN([C@H]2C[C@H]3[C@@H]4CC=C5C[C@@H](O)CC[C@]5(C)[C@H]4CC[C@]3(C)C2=O)CC1	> 100 µM	> 100 µM	> 100 µM	> 100	> 100	> 100	> 100	> 100 µM	> 100 µM	> 100 µM	–	–	–	–
O=C1/C(=C/c2ccc(O)cc2)CC/C1=C\c1ccc(O)cc1	> 100 µM	> 100 µM	> 100 µM	> 100	> 100	> 100	> 100	> 100 µM	> 100 µM	> 100 µM	–	–	–	–
Cc1c2cnccc2c(C)c2c1c1ccccc1n2CCCN	1.83 µM and 0.432 µM	0.609 µM and 0.628 µM	0.724 µM and 1.11 µM	2.37	0.46	1.39	0.644	0.799 µM and 0.888 µM	0.865 µM and 1.24 µM	1.36 µM and 1.1 µM	0.23	0.121	0.285 µM and 0.24 µM	0.25
C=C(C1=CC(=O)C(C)(C)O1)[C@@H]1CC=C([C@@H]2CC[C@H]3[C@@]2(C)CC[C@H]2C(C)(C)C(=O)[C@H](O)C[C@]32C)[C@H](O)O1	7.49 µM	3 µM	5.16 µM	13.1	8.04	3.58	2.68	3.59 µM	22 µM	5.18 µM	–	–	–	–
Cc1cc(=O)[nH]c(NN2C(Cl)C(=O)C2c2ccccc2O)n1 (centres undefined)	> 100 µM	> 42.7 µM	> 100 µM	> 100	> 100	> 100	> 100	> 100 µM	> 100 µM	> 64 µM	–	–	–	–
C=C1c2nc3ccccc3n2C=C(c2ccccc2)N1c1ccc([N+](=O)[O-])cc1	> 23.2 µM	35.2 µM	32.1 µM	30.3	32.6	43.5	68.2	16 µM	18.5 µM	> 95.2 µM	–	–	–	–
CCc1ccc(CCN2CCCCC2)nc1	> 100 µM	> 100 µM	> 100 µM	> 100	> 100	> 100	> 100	> 100 µM	> 100 µM	> 100 µM	–	–	–	–
O=C1CCC(=O)N1n1c(Cc2ccccc2)n[nH]c1=O	> 100 µM	> 100 µM	> 100 µM	> 100	> 100	> 100	> 100	> 100 µM	> 100 µM	> 100 µM	–	–	–	–
CC[C@@]1(O)C(=O)OCc2c1cc1n(c2=O)Cc2c-1nc1ccccc1c2/C=N\NC(=O)CN	> 47.4 µM	16.1 µM	> 100 µM	> 100	41.5	> 100	> 100	7.66 µM	6.13 µM	> 100 µM	–	–	–	–
CCOC(=O)c1c2ccccc2n2c(N)c(C(N)=O)nnc12	> 100 µM	> 100 µM	> 100 µM	35.5	> 100	> 100	> 100	41.6 µM	> 100 µM	> 100 µM	–	–	–	–
COc1ccc(C2c3cc4c(cc3OC(NNS(=O)(=O)c3ccc(C)cc3)C2C)OCO4)cc1 (centres undefined)	> 100 µM	> 100 µM	> 100 µM	> 100	> 100	> 100	> 100	> 100 µM	> 100 µM	> 100 µM	–	–	–	–
CC1=CC2C(O1)C1C(=O)C=CC(=O)C1=CC2[N+](=O)[O-] (centres undefined)	> 59.7 µM	31.8 µM	39.6 µM	> 58	26.4	65.8	37.9	28.2 µM	34.5 µM	39.6 µM	–	–	–	–
Cc1cc(O)c2c(=O)c3ccccc3[nH]c2c1	> 100 µM	65.2 µM	52.1 µM	84.6	> 100	> 100	77.3	82.8 µM	51.2 µM	> 100 µM	–	–	–	–
CC(C)CC(=O)OC[n+]1ccc(-c2c(COC(=O)NC(C)C)c(COC(=O)NC(C)C)c3n2CCC3)cc1	> 100 µM	> 100 µM	> 100 µM	> 100	> 100	> 100	> 100	> 100 µM	> 100 µM	> 100 µM	–	–	–	–

From PubChem BioAssay (NCI)
